Reference: PubChem BioAssay (NCI)
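Results reflect a 48-hour exposure of cells in 96-well plates to compound at five concentrations. TGI: concentration producing complete growth inhibition.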

Experiments:
Assay in all cases: NCI tumour cell line growth inhibition, 48 h
[1] = system: HOP-62 NSCLC
[2] = system: SF-268 CNS
[3] = system: DU-145 prostate
[4] = system: LOX IMVI melanoma
[5] = system: RXF 393 renal
[6] = system: NCI-H522 lung
[7] = system: HCT-15 colon
[8] = system: HCC-2998 colon
[9] = system: A498 renal
[10] = system: SNB-19 CNS
[11] = system: SF-295 CNS
[12] = system: CAKI-1 renal
[13] = system: MALME-3M melanoma
[14] = system: K-562 leukemia
[15] = system: RPMI-8226 leukemia
[16] = system: SK-MEL-28 melanoma
[17] = system: UACC-62 melanoma
[18] = system: HT29 colon
[19] = system: NCI-H23 lung
[20] = system: SR leukemia
[21] = system: IGROV1 ovarian
[22] = system: SK-MEL-2 melanoma
[23] = system: NCI-H460 lung
[24] = system: MDA-MB-435
[25] = system: PC-3 prostate
[26] = system: MDA-MB-231 breast
[27] = system: BT-549 breast
[28] = system: OVCAR-5 ovarian
[29] = system: OVCAR-4 ovarian
[30] = system: SW-620 colon
[31] = system: KM12 colon
[32] = system: MDA-N
[33] = system: TK-10 renal
[34] = system: OVCAR-3 ovarian
[35] = system: HS 578T breast
[36] = system: SNB-75 CNS
[37] = system: SK-MEL-5 melanoma
[38] = system: ACHN renal
[39] = system: HL-60(TB) leukemia
[40] = system: T-47D breast
[41] = system: 786-0 renal
[42] = system: UO-31 renal
[43] = system: NCI-H226 lung
[44] = system: MCF7 breast
[45] = system: EKVX NSCLC
[46] = system: MOLT-4 leukemia
[47] = system: UACC-257 melanoma
[48] = system: U251 CNS
[49] = system: SN12C renal
[50] = system: HCT-116 colon
[51] = system: COLO 205 colon
[52] = system: NCI/ADR-RES ovarian
[53] = system: OVCAR-8 ovarian
[54] = system: A549 NSCLC
[55] = system: SF-539 CNS
[56] = system: HOP-92 NSCLC
[57] = system: M14 melanoma
[58] = system: CCRF-CEM leukemia
[59] = system: SK-OV-3 ovarian

CCO[C@@H]1CCC(S(=O)c2ccc(C)cc2)=CO1 (stereo partly drawn)
TGI [1]: > 100 µM | TGI [2]: > 100 µM | TGI [3]: > 100 µM | TGI [4]: > 100 µM | TGI [5]: > 100 µM | TGI [6]: > 100 µM | TGI [7]: > 100 µM | TGI [8]: > 100 µM | TGI [9]: > 100 µM | TGI [10]: > 100 µM | TGI [11]: > 100 µM | TGI [12]: > 100 µM | TGI [13]: > 100 µM | TGI [14]: > 100 µM | TGI [15]: > 100 µM | TGI [16]: > 100 µM | TGI [17]: > 100 µM | TGI [18]: > 100 µM | TGI [19]: > 100 µM | TGI [20]: > 100 µM | TGI [21]: > 100 µM | TGI [22]: > 100 µM | TGI [23]: > 100 µM | TGI [24]: > 100 µM | TGI [25]: > 100 µM | TGI [26]: > 100 µM | TGI [27]: > 100 µM | TGI [28]: > 100 µM | TGI [29]: > 100 µM | TGI [30]: > 100 µM | TGI [31]: > 100 µM | TGI [32]: > 100 µM | TGI [33]: > 100 µM | TGI [34]: > 100 µM | TGI [35]: > 100 µM | TGI [36]: > 100 µM | TGI [37]: > 100 µM | TGI [38]: > 100 µM | TGI [39]: > 100 µM | TGI [40]: > 100 µM | TGI [41]: > 100 µM | TGI [42]: > 100 µM | TGI [43]: > 100 µM | TGI [44]: > 100 µM | TGI [45]: > 100 µM | TGI [46]: > 100 µM | TGI [47]: > 100 µM | TGI [48]: > 100 µM | TGI [49]: > 100 µM | TGI [50]: > 100 µM | TGI [51]: > 100 µM | TGI [52]: > 100 µM | TGI [53]: > 100 µM

CN(CC(=O)O)c1ccc(/C=C/c2ccnc3ccccc23)cc1
TGI [1]: > 100 µM | TGI [2]: 61.1 µM | TGI [54]: 61.4 µM | TGI [3]: > 100 µM | TGI [4]: 45.7 µM | TGI [5]: 49.8 µM | TGI [6]: 26.5 µM | TGI [7]: > 100 µM | TGI [8]: 53 µM | TGI [9]: 47.1 µM | TGI [10]: > 100 µM | TGI [11]: 54.5 µM | TGI [12]: 66.1 µM | TGI [14]: > 100 µM | TGI [15]: 57.5 µM | TGI [16]: > 100 µM | TGI [55]: > 100 µM | TGI [17]: 52.2 µM | TGI [18]: 66.6 µM | TGI [19]: > 100 µM | TGI [20]: 33.7 µM | TGI [21]: 39.4 µM | TGI [22]: 44.6 µM | TGI [56]: > 100 µM | TGI [23]: 67.1 µM | TGI [24]: 51.1 µM | TGI [25]: > 100 µM | TGI [26]: > 100 µM | TGI [27]: 70.4 µM | TGI [57]: 67.7 µM | TGI [28]: 94 µM | TGI [58]: 72.5 µM | TGI [30]: > 100 µM | TGI [31]: 41.2 µM | TGI [32]: 53.9 µM | TGI [33]: 47.7 µM | TGI [59]: 91.6 µM | TGI [34]: > 100 µM | TGI [35]: 75 µM | TGI [36]: 86.8 µM | TGI [37]: 31.7 µM | TGI [38]: > 100 µM | TGI [39]: 48.2 µM | TGI [40]: > 100 µM | TGI [41]: > 100 µM | TGI [42]: 54 µM | TGI [44]: 35.2 µM | TGI [45]: 30.8 µM | TGI [47]: 65.4 µM | TGI [48]: 75.2 µM | TGI [49]: 92.8 µM | TGI [50]: 69.8 µM | TGI [51]: 34.3 µM | TGI [52]: > 100 µM | TGI [53]: > 100 µM

CCCCNc1c(CN)cnc2cc(Cl)ccc12
TGI [1]: 35.4 µM | TGI [2]: 57.6 µM | TGI [54]: 41.5 µM | TGI [3]: 86.8 µM | TGI [4]: 29.9 µM | TGI [5]: 29.5 µM | TGI [6]: 34.5 µM | TGI [7]: 33.1 µM | TGI [8]: 9.63 µM | TGI [9]: 28.7 µM | TGI [10]: 51 µM | TGI [11]: 29.8 µM | TGI [12]: 65.7 µM | TGI [13]: 34 µM | TGI [14]: 32.1 µM | TGI [15]: 37 µM | TGI [16]: 30 µM | TGI [17]: 29 µM | TGI [18]: 37 µM | TGI [19]: 39.2 µM | TGI [21]: 34.4 µM | TGI [22]: 33.3 µM | TGI [56]: 35.1 µM | TGI [23]: 25.8 µM | TGI [24]: 35 µM | TGI [25]: 43.1 µM | TGI [26]: 30 µM | TGI [27]: 31.8 µM | TGI [57]: 36.6 µM | TGI [28]: 35.5 µM | TGI [29]: 40.1 µM | TGI [58]: 18.7 µM | TGI [30]: 33.5 µM | TGI [31]: 36.7 µM | TGI [32]: 39.3 µM | TGI [33]: 30.2 µM | TGI [59]: 31.6 µM | TGI [34]: 32.3 µM | TGI [35]: 37.2 µM | TGI [36]: 42.3 µM | TGI [37]: 29.3 µM | TGI [38]: 58.7 µM | TGI [39]: 3.92 µM | TGI [40]: 44.3 µM | TGI [41]: 40.2 µM | TGI [43]: 32.6 µM | TGI [44]: 27.6 µM | TGI [45]: 17.1 µM | TGI [46]: 36.5 µM | TGI [47]: 26.5 µM | TGI [48]: 30.4 µM | TGI [49]: 37.9 µM | TGI [50]: 35.9 µM | TGI [51]: 21.5 µM | TGI [52]: 32 µM | TGI [53]: 33.8 µM

CN(C)CCCNc1ncnc2nc[nH]c12
TGI [1]: > 100 µM | TGI [2]: > 100 µM | TGI [54]: > 100 µM | TGI [3]: > 100 µM | TGI [4]: > 100 µM | TGI [5]: > 100 µM | TGI [6]: > 100 µM | TGI [7]: > 100 µM | TGI [8]: > 100 µM | TGI [9]: > 100 µM | TGI [10]: > 100 µM | TGI [11]: > 100 µM | TGI [12]: > 100 µM | TGI [13]: > 100 µM | TGI [14]: > 100 µM | TGI [15]: > 100 µM | TGI [16]: > 100 µM | TGI [17]: > 100 µM | TGI [18]: > 100 µM | TGI [19]: > 100 µM | TGI [21]: > 100 µM | TGI [22]: > 100 µM | TGI [56]: > 100 µM | TGI [23]: > 100 µM | TGI [24]: > 100 µM | TGI [25]: > 100 µM | TGI [26]: > 100 µM | TGI [27]: > 100 µM | TGI [57]: > 100 µM | TGI [28]: > 100 µM | TGI [29]: > 100 µM | TGI [58]: > 100 µM | TGI [30]: > 100 µM | TGI [31]: > 100 µM | TGI [32]: > 100 µM | TGI [33]: > 100 µM | TGI [59]: > 100 µM | TGI [34]: > 100 µM | TGI [35]: > 100 µM | TGI [37]: > 100 µM | TGI [38]: > 100 µM | TGI [40]: > 100 µM | TGI [41]: > 100 µM | TGI [42]: > 100 µM | TGI [43]: > 100 µM | TGI [44]: > 100 µM | TGI [45]: > 100 µM | TGI [46]: > 100 µM | TGI [48]: > 100 µM | TGI [49]: > 100 µM | TGI [50]: > 100 µM | TGI [51]: > 100 µM | TGI [52]: > 100 µM | TGI [53]: > 100 µM
